Data taken from patent publication EP2627439B1, “METHOD FOR SOLUBILIZING CARBOXYLIC ACID-CONTAINING COMPOUND IN HYDROCARBON SOLVENT” (Dow Global Technologies LLC, priority 2011, dated 2013).

Assay: Solubility measurement of acid chlorides containing one carboxylic acid moiety in hydrocarbon solvents (saturated solutions, proton NMR)
Assay type: physicochemical
Details: saturated solution, 20°C and 101 kPa
Procedure: Solubility measurement of acid chlorides containing one carboxylic acid moiety in hydrocarbon solvents with and without solubility enhancing additives: • Saturated solutions of sample acid chlorides containing carboxylic acid moieties were prepared in hydrocarbon solvents with and without the presence of trialkylphosphate additives by adding more sample than will dissolve in the solvent and decanting the saturated solvent from the undissolved precipitate. The saturated solutions were evaluated by proton NMR. Deuterated Isopar L is not commercially available, thus all spectra were acquired in the unlocked condition using regular Isopar L. Because of the very high proton concentration in running a non-deuterated solvent, 60° pulse and minimum receiver gain were used to avoid receiver overflow. A relaxation delay of 8 seconds was used for complete signal recovery between scans. The spectral width was set to 20 ppm and the center of the spectrum was set to 5 ppm. Depending on the concentrations of the species of interest, 64-256 scans were used for signal averaging.
The area of the Isopar L peaks between 0.75 and 2.0 ppm were measure and divided by 26 (which represents the average H's present in Isopar L, assuming a molecular formula of C12H26) and multiplied by 170.33, the formula weight of C12H26. The peak area of the aromatic acid chlorides containing carboxylates are between 8.9 - 9.2 ppm and are well resolved from the Isopar solvent. The integration of one of the assigned peaks (for example, the triplet of mono-hydrolyzed TMC at 9.0 ppm represents a single proton) was used to determine the relative weight of the sample in the Isopar L solvent. The integration is divided by the number of protons it represents and multiplied by the formula weight of the compound it represents (for example, the triplet of mono-hydrolyzed TMC at 9.0 ppm would be divided by 1 and multiplied by 247.03 g/mol). The wt% of mono-hydrolyzed TMC in the saturated solution is determined by dividing the value obtained for mono-hydrolyzed TMC by the value obtained for Isopar L.
In the presence of tributylphosphate (TBP), the Isopar L value must be corrected since a few protons of TBP cannot be resolved from the Isopar L peaks. This is done by integrating the -OCH2-protons of TBP which are well resolved at ∼4.05 ppm, dividing this value by 6 (for 6 protons). This area value is then multiplied by 21 (represents the three -CH2CH2CH3 that are unresolved from the Isopar L peak) and subtracted from the peak area of Isopar L. Table 2: […]

Solubility (wt%) (Solvent: 80/20 Isopar L / Toluene, no additive) | Solubility (wt%) (Solvent: 80/20 Isopar L/Toluene + 0.25 wt% TBP) | Solubility (wt%) (Solvent: Isopar L + 1 wt% TEHP) | Solubility (wt%) (Solvent: Isopar L + 1 wt% TEP) | Solubility (wt%) (Solvent: Isopar L, no additive) | Solubility (wt%) (Solvent: Isopar L + 0.47 wt% TBP) | SMILES
0.05 | 0.29 | 0.11 | 0.2 | 0.02 |  | O=C(O)c1cc(C(=O)Cl)cc(C(=O)Cl)c1 [mhTMC, mono-hydrolyzed trimesoyl chloride]
 |  |  |  | <0.02 | 0.29 | O=C(O)c1cccc(C(=O)Cl)c1 [mhIPC]
